A short description of experiment [1]: Inhibition of human HDAC1 (379 to 382 residues) using RHKKAc-AMC as substrate incubated for 60 mins by […] assay.
The target of experiment [2] is T1, Histone deacetylase 1 (Homo sapiens, UniProt Q13547). Description: Inhibition of human HDAC1.
Experiment [3] has as its target T2, Histone deacetylase 2 (Homo sapiens, UniProt Q92769). As to the kind of experiment: Inhibition of human HDAC2.
Experiment [4] deals with T3, Histone deacetylase 3 (Homo sapiens, UniProt O15379). As to the kind of experiment: Inhibition of human HDAC3.
T3 sequence (O15379 whole entry): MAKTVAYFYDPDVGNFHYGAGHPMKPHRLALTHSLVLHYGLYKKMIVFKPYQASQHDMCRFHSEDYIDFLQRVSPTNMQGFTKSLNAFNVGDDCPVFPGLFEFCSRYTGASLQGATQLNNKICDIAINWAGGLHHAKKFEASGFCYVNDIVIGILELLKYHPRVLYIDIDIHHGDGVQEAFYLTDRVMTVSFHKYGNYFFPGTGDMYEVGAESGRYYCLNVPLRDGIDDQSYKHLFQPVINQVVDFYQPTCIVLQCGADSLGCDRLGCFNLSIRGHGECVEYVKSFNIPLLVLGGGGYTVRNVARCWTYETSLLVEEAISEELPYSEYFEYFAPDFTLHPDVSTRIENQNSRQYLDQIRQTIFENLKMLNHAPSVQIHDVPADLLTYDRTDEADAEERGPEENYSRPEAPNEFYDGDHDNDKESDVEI
Another experiment addresses T4, Histone deacetylase 11 (Homo sapiens, UniProt Q96DB2).
T4 sequence (Q96DB2 whole entry): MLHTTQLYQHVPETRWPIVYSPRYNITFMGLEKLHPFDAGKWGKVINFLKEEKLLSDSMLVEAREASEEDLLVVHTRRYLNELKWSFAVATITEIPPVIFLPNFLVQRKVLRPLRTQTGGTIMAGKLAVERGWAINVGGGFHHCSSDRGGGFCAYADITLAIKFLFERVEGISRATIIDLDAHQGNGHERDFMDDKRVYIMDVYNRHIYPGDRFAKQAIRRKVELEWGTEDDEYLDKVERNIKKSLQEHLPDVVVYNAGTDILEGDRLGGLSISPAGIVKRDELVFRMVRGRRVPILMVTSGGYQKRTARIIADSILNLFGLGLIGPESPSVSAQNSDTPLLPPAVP
As to the kind of experiment: Inhibition of human recombinant full length FLAG-tagged HDAC11 transfected in HEK293T cells using Ac-ETDKrnyr-AMC as substrate incubated for 30 mins by fluorescence based analysis.

Experiment [5] addresses T1, Histone deacetylase 1. As to the kind of experiment: Inhibition of HDAC1 (unknown origin).
For experiment [6], the target named is T5, Protein deacetylase HDAC6 (Homo sapiens, UniProt Q9UBN7).
T5 sequence (Q9UBN7 whole entry): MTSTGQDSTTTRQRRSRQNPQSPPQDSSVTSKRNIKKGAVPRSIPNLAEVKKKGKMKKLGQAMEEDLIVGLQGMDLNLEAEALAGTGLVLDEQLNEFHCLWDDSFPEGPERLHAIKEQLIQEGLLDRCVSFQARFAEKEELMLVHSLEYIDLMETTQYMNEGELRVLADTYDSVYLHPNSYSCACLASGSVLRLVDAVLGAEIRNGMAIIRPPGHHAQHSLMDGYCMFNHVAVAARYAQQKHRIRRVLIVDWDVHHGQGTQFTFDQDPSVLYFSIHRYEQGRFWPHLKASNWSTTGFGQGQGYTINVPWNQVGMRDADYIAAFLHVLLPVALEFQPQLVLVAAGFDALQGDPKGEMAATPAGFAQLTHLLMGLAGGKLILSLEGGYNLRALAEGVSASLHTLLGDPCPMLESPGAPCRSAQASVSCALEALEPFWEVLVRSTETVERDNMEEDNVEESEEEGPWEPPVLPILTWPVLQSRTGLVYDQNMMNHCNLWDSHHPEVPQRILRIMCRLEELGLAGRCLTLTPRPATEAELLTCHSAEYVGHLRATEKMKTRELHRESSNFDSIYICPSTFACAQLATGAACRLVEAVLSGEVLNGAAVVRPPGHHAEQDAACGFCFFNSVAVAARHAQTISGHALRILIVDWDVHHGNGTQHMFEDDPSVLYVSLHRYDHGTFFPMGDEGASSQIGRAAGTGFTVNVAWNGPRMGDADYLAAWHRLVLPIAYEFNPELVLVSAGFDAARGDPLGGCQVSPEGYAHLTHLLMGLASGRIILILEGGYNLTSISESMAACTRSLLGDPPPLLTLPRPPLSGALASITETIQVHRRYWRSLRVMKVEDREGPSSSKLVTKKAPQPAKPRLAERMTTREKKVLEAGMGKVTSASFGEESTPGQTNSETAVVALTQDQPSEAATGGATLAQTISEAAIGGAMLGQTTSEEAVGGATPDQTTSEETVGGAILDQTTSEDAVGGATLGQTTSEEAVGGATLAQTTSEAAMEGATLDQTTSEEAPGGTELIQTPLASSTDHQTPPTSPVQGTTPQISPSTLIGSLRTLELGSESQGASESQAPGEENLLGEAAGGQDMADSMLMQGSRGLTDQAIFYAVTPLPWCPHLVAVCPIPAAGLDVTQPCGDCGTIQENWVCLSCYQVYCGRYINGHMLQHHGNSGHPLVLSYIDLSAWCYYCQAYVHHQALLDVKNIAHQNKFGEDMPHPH
Description: Inhibition of HDAC6 (unknown origin).

The target of experiment [7] is T2, Histone deacetylase 2. Description: Inhibition of HDAC2 (unknown origin).
The target in experiment [8] is T3, Histone deacetylase 3. As to the kind of experiment: Inhibition of HDAC3 (unknown origin).
The target of a further experiment is T6, Histone deacetylase 8 (Homo sapiens, UniProt Q9BY41).
T6 sequence (Q9BY41 whole entry): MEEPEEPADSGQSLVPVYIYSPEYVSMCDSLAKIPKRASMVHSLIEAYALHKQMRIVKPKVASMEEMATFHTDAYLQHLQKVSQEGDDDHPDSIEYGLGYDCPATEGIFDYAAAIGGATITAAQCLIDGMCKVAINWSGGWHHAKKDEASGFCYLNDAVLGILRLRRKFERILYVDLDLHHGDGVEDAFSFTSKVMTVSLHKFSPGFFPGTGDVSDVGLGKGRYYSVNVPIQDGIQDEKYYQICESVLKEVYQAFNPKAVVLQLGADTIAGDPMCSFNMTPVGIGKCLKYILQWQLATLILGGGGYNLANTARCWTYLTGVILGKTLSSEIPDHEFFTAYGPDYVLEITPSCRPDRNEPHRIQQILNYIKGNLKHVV
Description: Inhibition of HDAC8 (unknown origin).

Another experiment addresses Histone deacetylase 4 (Homo sapiens, UniProt P56524). As to the kind of experiment: Inhibition of HDAC4 (unknown origin).

The IC50 is the concentration needed to halve the response being measured.

T1 sequence (Q13547 whole entry): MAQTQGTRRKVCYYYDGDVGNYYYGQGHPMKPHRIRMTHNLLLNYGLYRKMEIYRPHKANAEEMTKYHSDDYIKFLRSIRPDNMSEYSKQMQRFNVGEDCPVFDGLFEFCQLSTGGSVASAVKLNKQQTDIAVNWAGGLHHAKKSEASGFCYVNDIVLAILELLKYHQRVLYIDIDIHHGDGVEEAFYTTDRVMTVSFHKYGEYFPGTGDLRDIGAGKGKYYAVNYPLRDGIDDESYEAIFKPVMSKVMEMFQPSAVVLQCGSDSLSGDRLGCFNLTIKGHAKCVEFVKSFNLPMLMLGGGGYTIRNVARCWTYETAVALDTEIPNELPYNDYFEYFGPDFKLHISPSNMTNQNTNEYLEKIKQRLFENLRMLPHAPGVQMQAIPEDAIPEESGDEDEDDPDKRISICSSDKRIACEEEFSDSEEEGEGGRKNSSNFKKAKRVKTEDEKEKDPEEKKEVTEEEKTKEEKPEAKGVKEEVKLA
T2 sequence (Q92769 whole entry): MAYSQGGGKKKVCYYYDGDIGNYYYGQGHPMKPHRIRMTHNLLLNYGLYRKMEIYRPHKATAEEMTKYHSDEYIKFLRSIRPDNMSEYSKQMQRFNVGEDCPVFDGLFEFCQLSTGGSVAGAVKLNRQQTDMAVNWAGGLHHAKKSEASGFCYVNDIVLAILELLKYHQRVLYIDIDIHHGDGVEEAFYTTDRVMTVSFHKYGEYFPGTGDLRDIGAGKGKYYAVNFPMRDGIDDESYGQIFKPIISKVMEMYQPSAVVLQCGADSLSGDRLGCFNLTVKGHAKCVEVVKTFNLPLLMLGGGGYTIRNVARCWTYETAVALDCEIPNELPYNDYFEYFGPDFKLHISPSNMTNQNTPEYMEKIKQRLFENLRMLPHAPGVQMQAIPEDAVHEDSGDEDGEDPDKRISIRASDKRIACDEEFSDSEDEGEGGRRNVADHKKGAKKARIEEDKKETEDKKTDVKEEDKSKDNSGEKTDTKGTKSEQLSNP
Sequence of Histone deacetylase 4 (P56524 whole entry): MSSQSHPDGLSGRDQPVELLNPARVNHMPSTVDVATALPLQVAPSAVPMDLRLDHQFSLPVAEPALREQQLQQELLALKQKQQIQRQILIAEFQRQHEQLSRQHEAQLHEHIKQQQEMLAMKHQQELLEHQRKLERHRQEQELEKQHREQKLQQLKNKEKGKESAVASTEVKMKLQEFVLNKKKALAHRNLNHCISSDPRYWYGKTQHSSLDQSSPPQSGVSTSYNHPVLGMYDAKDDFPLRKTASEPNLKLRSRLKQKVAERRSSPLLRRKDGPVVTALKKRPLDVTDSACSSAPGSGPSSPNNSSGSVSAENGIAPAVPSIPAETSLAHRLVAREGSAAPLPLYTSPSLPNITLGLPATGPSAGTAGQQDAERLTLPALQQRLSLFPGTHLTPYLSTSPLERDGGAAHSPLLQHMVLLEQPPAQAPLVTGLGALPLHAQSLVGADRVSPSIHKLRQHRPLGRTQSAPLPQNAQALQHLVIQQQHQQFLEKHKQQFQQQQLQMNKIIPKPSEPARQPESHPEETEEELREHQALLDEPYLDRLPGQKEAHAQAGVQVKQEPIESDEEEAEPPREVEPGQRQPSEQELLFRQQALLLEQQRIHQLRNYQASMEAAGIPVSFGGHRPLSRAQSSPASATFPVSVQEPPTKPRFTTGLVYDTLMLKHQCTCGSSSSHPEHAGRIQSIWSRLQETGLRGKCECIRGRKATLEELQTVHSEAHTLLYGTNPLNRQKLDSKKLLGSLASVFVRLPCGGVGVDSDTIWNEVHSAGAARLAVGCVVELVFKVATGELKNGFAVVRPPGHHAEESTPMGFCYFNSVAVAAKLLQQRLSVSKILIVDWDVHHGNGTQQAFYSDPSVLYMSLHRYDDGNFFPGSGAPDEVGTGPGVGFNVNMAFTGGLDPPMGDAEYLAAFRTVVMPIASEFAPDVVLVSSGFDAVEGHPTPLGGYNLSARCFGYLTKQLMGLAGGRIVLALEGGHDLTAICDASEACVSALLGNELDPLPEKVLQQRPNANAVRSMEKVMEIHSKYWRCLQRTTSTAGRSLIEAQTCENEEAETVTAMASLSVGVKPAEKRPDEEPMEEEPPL

Take `CCCCNNC(=O)c1ccc(Br)cc1`: in experiment [1], the IC50 came to 133 nM.

`CCCNNC(=O)CCCCCCC(=O)Nc1ccccc1`: the values for the IC50 at Histone deacetylase 1 [2], against Histone deacetylase 2 [3] and on Histone deacetylase 3 [4] were 828 nM, 530 nM and 379 nM, respectively.

As for `CCCCCCCCCCCCCCCCNNC(=O)c1ccc(N(C)C)cc1`, the IC50 at Histone deacetylase 11 worked out at 910 nM.

Regarding `CCCNNC(=O)c1ccc(Nc2nccc(N(C)c3ccc4c(C)n(C)cc4c3)n2)cc1`, the IC50 on Histone deacetylase 1 [5] was 0.42 nM; in experiment [6] it was 8960 nM.

Turning to `CCCC(CCC)C(=O)N[C@@H](Cc1ccccc1)C(=O)NNc1ccccc1`, the IC50 on Histone deacetylase 1 [5] was 390 nM; at Histone deacetylase 2 [7] it was 2020 nM; against Histone deacetylase 3 [8], 1490 nM; against Histone deacetylase 8, 1540 nM; on Histone deacetylase 4 it was 3180 nM.

With `CCCC(CCC)C(=O)O` [VALPROIC ACID], the IC50 against Histone deacetylase 4 was more than 100000 nM.
